Assay results: patent US7041461B2 (H. Lundbeck A/S, priority 1998, dated 2006)
Like-named read-outs stand apart in the source and are kept apart here. Non-standard residues stand in square brackets, D forms with d. Residues, ends and D or L forms follow the SMILES beside them. No end group written: not given here. NMeF = CN[C@@H](Cc1ccccc1)C(=O)O

Tests used:
[1] = target: T1, cloned rat NPFF1 receptor (Rattus norvegicus, UniProt Q9EP86); assay: Radioligand binding to cloned rat NPFF1 receptor, membranes of transiently transfected COS-7 cells
T1 construct: expressed in transfected cells; host or cells: COS-7 cells, transient; membranes
T1 sequence (Q9EP86 whole entry): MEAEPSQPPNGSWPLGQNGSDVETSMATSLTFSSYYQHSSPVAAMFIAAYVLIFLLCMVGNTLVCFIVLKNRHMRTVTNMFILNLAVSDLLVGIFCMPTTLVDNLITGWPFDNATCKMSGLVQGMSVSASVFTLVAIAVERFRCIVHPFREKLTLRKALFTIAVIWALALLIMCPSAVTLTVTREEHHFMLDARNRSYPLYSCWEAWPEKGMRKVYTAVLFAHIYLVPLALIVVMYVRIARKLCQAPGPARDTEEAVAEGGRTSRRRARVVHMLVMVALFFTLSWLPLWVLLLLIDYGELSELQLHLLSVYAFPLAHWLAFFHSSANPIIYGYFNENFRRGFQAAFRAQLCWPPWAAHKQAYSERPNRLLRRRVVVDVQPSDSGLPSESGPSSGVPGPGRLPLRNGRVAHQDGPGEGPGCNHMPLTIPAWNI
Description: Transfected cells from culture flasks are scraped into 5 ml of 20 mM Tris-HCl, 5 mM EDTA, pH 7.5, and lysed by sonication. The cell lysates are centrifuged at 1000 rpm for 5 min. at 4° C., and the supernatant is centrifuged at 30,000× g for 20 min. at 4° C. […] Optimal membrane suspension dilutions, defined as the protein concentration required to bind less than 10% of the added radioligand, […], unlabeled compounds, and binding buffer to a final volume of 250 μl. In equilibrium saturation binding assays membrane preparations are incubated in the presence of increasing concentrations of [^3H]-labeled compound.
(§1) Competition assay: 50 pM radioligand, 10–12 points. Binding reaction mixtures are incubated for 2 hr at 25° C., and the reaction stopped by filtration through a double layer of GF filters treated with 0.1% polyethyleneimine, using a cell harvester. Wash buffer: 50 mM Tris-HCl, 0.1% BSA. Radioactivity may be measured by scintillation counting and data are analyzed by a computerized non-linear regression program. Non-specific binding is defined as the amount of radioactivity remaining after incubation of membrane protein in the presence of 1 μM final concentration […]. Protein concentration may be measured by the Bradford method using Bio-Rad Reagent, with bovine serum albumin as a standard.
Cos-7 cells transiently expressing the gene encoding the novel rat NPFF1 receptor were used for pharmacological evaluation. […]

[2] = target: rat spinal cord membrane receptor; assay: Radioligand binding to rat spinal cord membranes; conditions: * marks difference from NPFF1
Description: Transfected cells from culture flasks are scraped into 5 ml of 20 mM Tris-HCl, 5 mM EDTA, pH 7.5, and lysed by sonication. The cell lysates are centrifuged at 1000 rpm for 5 min. at 4° C., and the supernatant is centrifuged at 30,000× g for 20 min. at 4° C. […] Optimal membrane suspension dilutions, defined as the protein concentration required to bind less than 10% of the added radioligand, are added to 96-well polpropylene microtiter plates containing ^3H-labeled compound, unlabeled compounds, and binding buffer to a final volume of 250 μl. In equilibrium saturation binding assays membrane preparations are incubated in the presence of increasing concentrations of [^3H]-labeled compound.
as §1
The binding profile of rat NPFF1 was compared to that of rat spinal cord membranes. […] (See * Table 2).

[3] = competition of [125I]D-Tyr-NPFF binding, transiently transfected COS-7 membranes, read-out: pKi for cloned rat NPFF1 receptor binding in COS-7 cells, MEAN (converted)
[4] = competition of [125I]D-Tyr-NPFF binding, transiently transfected COS-7 membranes

Row | Molecule | Ki [1, 3] [nM] | pKi for rat spinal cord membrane receptor binding, MEAN [2] | pKi for cloned rat NPFF1 receptor binding in COS-7 cells, MEAN [1, 4] | Ki [1] [nM]
1 | YLFQPQRF-NH2 [Y8Fa] | 4.15 |  |  | 
2 | CC(C)C[C@H](NC(=O)[C@H](N)Cc1ccc(O)cc1)C(=O)N(C)[C@@H](Cc1ccccc1)C(=O)N[C@@H](CCC(N)=O)C(=O)N1CCC[C@H]1C(=O)N[C@@H](CCC(N)=O)C(=O)N[C@@H](CCCN=C(N)N)C(=O)N[C@@H](Cc1ccccc1)C(N)=O [(D-Tyr^1-(NMe)Phe^3)NPFF] (H-[dY]L[NMeF]QPQRF-NH2) | 2.82 |  |  | 
3 | C[C@@H]1CN([C@H]2CC[C@](C#N)(c3ccc(F)cc3)CC2)CC[C@]1(C(=O)O)c1ccccc1 [levocabastine] |  | 5.000 | 5.000 | 
4 | N=C(N)NCCC[C@@H](N)C(=O)O [D-arginine] |  | 5.000 | 5.000 | 
5 | N=C(N)NCCC[C@H](N)C(=O)O [L-arginine] |  | 5.000 | 5.000 | 
6 | NCCc1ccc(O)c(O)c1 [dopamine] |  | 5.000 | 5.000 | 
7 | COc1ccc2c(c1)[nH]c1c(C)nccc12 [harmine] |  | 5.000 | 5.000 | 
8 | a-MSH |  | 5.000 |  | 
9 | CCNC(C)Cc1cccc(C(F)(F)F)c1 (stereo not shown) [fenfluramine] |  | 5.000 | 5.000 | 
10 | CNCCCN1c2ccccc2CCc2ccccc21 [desipramine] |  | 5.000 | 5.000 | 
11 | Cc1nc2sccn2c(=O)c1CCN1CCC(=C(c2ccc(F)cc2)c2ccc(F)cc2)CC1 [ritanserine] |  | 5.000 | 5.000 | 
12 | TEPGLEEVGEIEQKQLQ [nocistatin] |  | 5.000 |  | 
13 | PDVDHVFLRF-NH2 [SchistFLRF] |  |  |  | 1100
14 | CSCC[C@H](NC(=O)[C@H](Cc1ccc(OS(=O)(=O)O)cc1)NC(=O)[C@@H](N)CC(=O)O)C(=O)NCC(=O)N[C@@H](Cc1c[nH]c2ccccc12)C(=O)N[C@@H](CCSC)C(=O)N[C@@H](CC(=O)O)C(=O)N[C@@H](Cc1ccccc1)C(N)=O [CCK8] |  | 5.000 |  | 
15 | CC(C)C[C@@H](NC(=O)[C@H](N)Cc1ccc(O)cc1)C(=O)N[C@H](Cc1ccccc1)C(=O)N[C@@H](CCC(N)=O)C(=O)N1CCC[C@H]1C(=O)N[C@@H](CCC(N)=O)C(=O)N[C@@H](CCCNC(=N)N)C(=O)N[C@@H](Cc1ccccc1)C(N)=O [(3D)Y8Fa] (H-[dY][dL][dF]QPQRF-NH2; N-terminus assumed) | 2.38 |  |  | 
16 | ibogaine |  | 5.000 |  | 
17 | CSCC[C@H](NC(=O)[C@@H]1CCCN1)C(=O)N[C@@H](CCCNC(=N)N)C(=O)N[C@@H](Cc1ccccc1)C(N)=O [PMRFa] (H-PMRF-NH2; N-terminus assumed) | 2.82 |  |  | 
